Measured values from article PMC5218480 (PLoS ONE, 2017).

Tested on: MV-4-11 cells
Assay: Gene expression microarray analysis (Affymetrix PrimeView) and GSEA
Assay type: cell-based, human
Design: RFU PODN (11730768_x_at) / Fold change /veh PODN (11730768_x_at) / RFU LINC00158 (11744669_a_at) / Fold change /veh LINC00158 (11744669_a_at) / RFU DUSP10 (11751237_a_at) / Fold change /veh DUSP10 (11751237_a_at) / RFU ID3 (11757404_x_at) / Fold change /veh ID3 (11757404_x_at) / RFU PLEKHG5 (11737974_s_at) / Fold change /veh PLEKHG5 (11737974_s_at) / RFU LRRC4B (11730491_at) / Fold change /veh LRRC4B (11730491_at) / RFU GIMAP4 (11747438_a_at) / Fold change /veh GIMAP4 (11747438_a_at) / RFU KRT8 (11758183_x_at) / Fold change /veh KRT8 (11758183_x_at) / RFU CNN1 (11734310_a_at) / Fold change /veh CNN1 (11734310_a_at) / RFU VPS37D (11726825_at) / Fold change /veh VPS37D (11726825_at) / RFU C10orf10 (11716522_x_at) / Fold change /veh C10orf10 (11716522_x_at) / RFU KIR2DL2 /// KIR2DL4 /// KIR2DL5A /// KIR2DL5B /// KIR2DS1 /// KIR2DS2 /// KIR2DS3 /// KIR2DS4 /// KIR3DL3 /// KIR3DL3 /// KIR3DS1 (11738374_at) / Fold change /veh KIR2DL2 /// KIR2DL4 /// KIR2DL5A /// KIR2DL5B /// KIR2DS1 /// KIR2DS2 /// KIR2DS3 /// KIR2DS4 /// KIR3DL3 /// KIR3DL3 /// KIR3DS1 (11738374_at) / RFU C1QL1 (11718748_at) / Fold change /veh C1QL1 (11718748_at) / RFU TMPRSS4 (11747572_a_at) / Fold change /veh TMPRSS4 (11747572_a_at) / RFU HAMP (11756126_x_at) / Fold change /veh HAMP (11756126_x_at) / RFU RNFT2 (11725882_a_at) / Fold change /veh RNFT2 (11725882_a_at) / RFU NR4A2 (11747474_a_at) / Fold change /veh NR4A2 (11747474_a_at) / RFU ABCC12 (11746883_a_at) / Fold change /veh ABCC12 (11746883_a_at) / RFU TMEM136 (11760407_x_at) / Fold change /veh TMEM136 (11760407_x_at) / RFU CLDN22 /// WWC2 (11732394_at) / Fold change /veh CLDN22 /// WWC2 (11732394_at) / RFU HLA-DPB1 (11760878_x_at) / Fold change /veh HLA-DPB1 (11760878_x_at) / RFU SPINT1 (11716480_a_at) / Fold change /veh SPINT1 (11716480_a_at) / RFU GAP43 (11754022_s_at) / Fold change /veh GAP43 (11754022_s_at) / RFU A4GNT (11735810_at) / Fold change /veh A4GNT (11735810_at) / RFU PRB3 (11715151_x_at) / Fold change /veh PRB3 (11715151_x_at) / RFU TUBB4B (11761932_at) / Fold change /veh TUBB4B (11761932_at) / RFU CAPN14 (11732068_a_at) / Fold change /veh CAPN14 (11732068_a_at) / RFU TMCC2 (11721928_a_at) / Fold change /veh TMCC2 (11721928_a_at) / RFU IRGQ (11745062_a_at) / Fold change /veh IRGQ (11745062_a_at) / RFU FAM174B (11720279_a_at) / Fold change /veh FAM174B (11720279_a_at) / RFU TMPRSS4 (11748680_a_at) / Fold change /veh TMPRSS4 (11748680_a_at) / RFU FAM212B (11763350_a_at) / Fold change /veh FAM212B (11763350_a_at) / RFU PLEKHG5 (11743358_a_at) / Fold change /veh PLEKHG5 (11743358_a_at) / RFU ZSCAN30 (11745921_a_at) / Fold change /veh ZSCAN30 (11745921_a_at) / RFU CMKLR1 (11741424_a_at) / Fold change /veh CMKLR1 (11741424_a_at) / RFU LOC101060620 /// MAPK8IP1 (11723275_at) / Fold change /veh LOC101060620 /// MAPK8IP1 (11723275_at) / RFU SPTSSB (11747773_x_at) / Fold change /veh SPTSSB (11747773_x_at) / RFU PRSS12 (11739890_at) / Fold change /veh PRSS12 (11739890_at) / RFU BIN1 (11741810_x_at) / Fold change /veh BIN1 (11741810_x_at) / RFU WNT11 (11732464_a_at) / Fold change /veh WNT11 (11732464_a_at) / RFU C10orf10 (11716521_a_at) / Fold change /veh C10orf10 (11716521_a_at) / RFU C5orf56 (11738089_at) / Fold change /veh C5orf56 (11738089_at) / RFU CYB561 (11721691_x_at) / Fold change /veh CYB561 (11721691_x_at) / RFU ANKRD19P (11752326_a_at) / Fold change /veh ANKRD19P (11752326_a_at) / RFU OR2T12 /// OR2T33 /// OR2T8 (11738714_s_at) / Fold change /veh OR2T12 /// OR2T33 /// OR2T8 (11738714_s_at) / RFU VCAN (11748164_a_at) / Fold change /veh VCAN (11748164_a_at) / RFU JSRP1 (11732532_at) / Fold change /veh JSRP1 (11732532_at) / RFU KRTAP10-11 (11738290_x_at) / Fold change /veh KRTAP10-11 (11738290_x_at) / RFU MYO3A (11730013_a_at) / Fold change /veh MYO3A (11730013_a_at) / RFU EBF3 (11725865_a_at) / Fold change /veh EBF3 (11725865_a_at) / RFU CAMK2N1 (11719241_x_at) / Fold change /veh CAMK2N1 (11719241_x_at) / RFU C5orf56 (11738088_a_at) / Fold change /veh C5orf56 (11738088_a_at) / RFU OLFML3 (11715873_a_at) / Fold change /veh OLFML3 (11715873_a_at) / RFU LOC100653217 /// NTM (11731650_a_at) / Fold change /veh LOC100653217 /// NTM (11731650_a_at) / RFU MAPK11 (11762145_a_at) / Fold change /veh MAPK11 (11762145_a_at) / RFU FIZ1 (11724087_x_at) / Fold change /veh FIZ1 (11724087_x_at) / RFU OASL (11726364_x_at) / Fold change /veh OASL (11726364_x_at) / RFU SOX15 (11748057_x_at) / Fold change /veh SOX15 (11748057_x_at) / RFU CD79A (11719716_a_at) / Fold change /veh CD79A (11719716_a_at) / RFU HIST1H1D (11736915_at) / Fold change /veh HIST1H1D (11736915_at) / RFU CASKIN2 (11723855_a_at) / Fold change /veh CASKIN2 (11723855_a_at) / RFU LOC730098 (11760151_x_at) / Fold change /veh LOC730098 (11760151_x_at) / RFU OR4N2 (11742367_at) / Fold change /veh OR4N2 (11742367_at) / RFU PRRT2 (11749266_a_at) / Fold change /veh PRRT2 (11749266_a_at) / RFU SNX32 (11753110_a_at) / Fold change /veh SNX32 (11753110_a_at) / RFU CDHR5 (11726645_a_at) / Fold change /veh CDHR5 (11726645_a_at) / RFU RCAN1 (11760418_a_at) / Fold change /veh RCAN1 (11760418_a_at) / RFU FAM167A (11723789_a_at) / Fold change /veh FAM167A (11723789_a_at) / RFU FAM26E (11764081_at) / Fold change /veh FAM26E (11764081_at) / RFU ISYNA1 (11749810_s_at) / Fold change /veh ISYNA1 (11749810_s_at) / RFU ACY1 (11761880_at) / Fold change /veh ACY1 (11761880_at) / RFU 11764098_at / Fold change /veh 11764098_at / RFU SAMD14 (11745864_x_at) / Fold change /veh SAMD14 (11745864_x_at) / RFU NPB (11741838_a_at) / Fold change /veh NPB (11741838_a_at) / RFU TMPRSS6 (11731388_a_at) / Fold change /veh TMPRSS6 (11731388_a_at) / RFU KRTAP10-2 (11738614_at) / Fold change /veh KRTAP10-2 (11738614_at) / RFU ARHGAP8 /// PRR5-ARHGAP8 (11727945_x_at) / Fold change /veh ARHGAP8 /// PRR5-ARHGAP8 (11727945_x_at) / RFU KRTAP5-7 /// NADSYN1 (11734609_at) / Fold change /veh KRTAP5-7 /// NADSYN1 (11734609_at) / RFU RASL12 (11751679_a_at) / Fold change /veh RASL12 (11751679_a_at) / RFU CDKN2B (11736163_a_at) / Fold change /veh CDKN2B (11736163_a_at) / RFU PRF1 (11729649_at) / Fold change /veh PRF1 (11729649_at) / RFU, ZNF638 /// ZNF638-IT1 / Fold change vs veh, ZNF638 /// ZNF638-IT1 / RFU, PANK3 / Fold change vs veh, PANK3 / RFU, SH3YL1 / Fold change vs veh, SH3YL1 / RFU, ZEB2 / Fold change vs veh, ZEB2 / RFU, NRIP1 / Fold change vs veh, NRIP1 / RFU, PTTG1IP / Fold change vs veh, PTTG1IP / RFU, CAPN2 / Fold change vs veh, CAPN2 / RFU, MED14 / Fold change vs veh, MED14 / RFU, SNORA58 / Fold change vs veh, SNORA58 / RFU, C1orf63 / Fold change vs veh, C1orf63 / RFU, LRRFIP1 / Fold change vs veh, LRRFIP1 / RFU, NDUFAF7 / Fold change vs veh, NDUFAF7 / RFU, SLC12A2 / Fold change vs veh, SLC12A2 / RFU, IBTK / Fold change vs veh, IBTK / RFU, ESF1 / Fold change vs veh, ESF1 / Fold change vs veh, TMEM50B / RFU, TAOK1 / Fold change vs veh, TAOK1 / RFU, ACBD3 / Fold change vs veh, ACBD3 / RFU, TMA16 / Fold change vs veh, TMA16 / RFU, RWDD3 / Fold change vs veh, RWDD3 / RFU, BCAT1 / Fold change vs veh, BCAT1 / RFU, EDEM3 / Fold change vs veh, EDEM3 / RFU, TMEM33 / Fold change vs veh, TMEM33 / RFU, WDR75 / Fold change vs veh, WDR75 / RFU, AHCTF1 / Fold change vs veh, AHCTF1 / RFU, TFRC / Fold change vs veh, TFRC / RFU, ZDHHC17 / Fold change vs veh, ZDHHC17 / RFU, NOM1 / Fold change vs veh, NOM1 / RFU, ARL8B / Fold change vs veh, ARL8B / RFU, ZBTB11 / Fold change vs veh, ZBTB11 / RFU, TAMM41 / Fold change vs veh, TAMM41 / RFU, KIAA1704 /// LOC100996395 / Fold change vs veh, KIAA1704 /// LOC100996395 / RFU, ING1 / Fold change vs veh, ING1 / RFU, TRMT61B / Fold change vs veh, TRMT61B / RFU, FUBP3 / Fold change vs veh, FUBP3 / RFU, TP53 / Fold change vs veh, TP53 / RFU, TNKS2 / Fold change vs veh, TNKS2 / RFU, ZFP14 / Fold change vs veh, ZFP14 / RFU, ACTR2 / Fold change vs veh, ACTR2 / RFU, PPP3R1 / Fold change vs veh, PPP3R1 / RFU, PIK3R1 / Fold change vs veh, PIK3R1 / RFU, HNRNPA1 / Fold change vs veh, HNRNPA1 / RFU, RNF170 / Fold change vs veh, RNF170 / RFU, ZNF28 / Fold change vs veh, ZNF28 / RFU, RNGTT / Fold change vs veh, RNGTT / RFU, OGT / Fold change vs veh, OGT / RFU, BRD1 / Fold change vs veh, BRD1 / RFU, MARS / Fold change vs veh, MARS / RFU, ZNF655 / Fold change vs veh, ZNF655 / RFU, FAHD1 / Fold change vs veh, FAHD1 / RFU, BDP1 / Fold change vs veh, BDP1 / RFU, LRRCC1 / Fold change vs veh, LRRCC1 / RFU, ARID1A / Fold change vs veh, ARID1A / RFU, ZNF146 / Fold change vs veh, ZNF146 / RFU, ZNF330 / Fold change vs veh, ZNF330 / RFU, GPN3 / Fold change vs veh, GPN3 / RFU, C9orf123 / Fold change vs veh, C9orf123 / RFU, N4BP2L2 / Fold change vs veh, N4BP2L2 / RFU, ARFIP1 / Fold change vs veh, ARFIP1 / RFU, FAM179B / Fold change vs veh, FAM179B / RFU, BCL10 / Fold change vs veh, BCL10 / RFU, UHRF1BP1L / Fold change vs veh, UHRF1BP1L / RFU, BET1 / Fold change vs veh, BET1 / RFU, CNOT2 / Fold change vs veh, CNOT2 / RFU, ZNF268 / Fold change vs veh, ZNF268 / Fold change vs veh, ZNF507 / RFU, DGCR2 / Fold change vs veh, DGCR2 / RFU, WDSUB1 / Fold change vs veh, WDSUB1 / Fold change vs veh, HSP90B1 /// MIR3652 / RFU, ADSS / Fold change vs veh, ADSS / RFU, GK / Fold change vs veh, GK / RFU, ZNF148 / Fold change vs veh, ZNF148 / RFU, TAF9 / Fold change vs veh, TAF9 / RFU, SLC1A5 / Fold change vs veh, SLC1A5 / RFU, SLMO2 / Fold change vs veh, SLMO2 / RFU, ABCC4 / Fold change vs veh, ABCC4 / RFU, LOC101060439 /// RAP1B / Fold change vs veh, LOC101060439 /// RAP1B / RFU, RFX7 / Fold change vs veh, RFX7 / RFU, GTPBP10 / Fold change vs veh, GTPBP10 / RFU, CNEP1R1 / Fold change vs veh, CNEP1R1 / RFU, BIVM-ERCC5 /// ERCC5 / Fold change vs veh, BIVM-ERCC5 /// ERCC5 / RFU, ILF3 / Fold change vs veh, ILF3 / RFU 11762660_at / Fold change /veh 11762660_at / RFU VCAN (11757783_s_at) / Fold change /veh VCAN (11757783_s_at) / RFU DDX43 (11728927_at) / Fold change /veh DDX43 (11728927_at) / RFU KRT8 (11758188_x_at) / Fold change /veh KRT8 (11758188_x_at) / RFU NKD1 (11759106_at) / Fold change /veh NKD1 (11759106_at) / RFU SRD5A1 (11742802_a_at) / Fold change /veh SRD5A1 (11742802_a_at) / RFU TPSAB1 /// TPSB2 (11721975_s_at) / Fold change /veh TPSAB1 /// TPSB2 (11721975_s_at) / RFU GSTM3 (11746129_a_at) / Fold change /veh GSTM3 (11746129_a_at) / RFU IL23R (11737362_x_at) / Fold change /veh IL23R (11737362_x_at) / RFU TMEM51 (11727254_a_at) / Fold change /veh TMEM51 (11727254_a_at) / RFU PIWIL2 (11732686_x_at) / Fold change /veh PIWIL2 (11732686_x_at) / RFU ORM1 (11744905_x_at) / Fold change /veh ORM1 (11744905_x_at) / RFU CCDC152 (11743942_at) / Fold change /veh CCDC152 (11743942_at) / RFU ECM1 (11717891_a_at) / Fold change /veh ECM1 (11717891_a_at) / RFU IL23R (11748794_a_at) / Fold change /veh IL23R (11748794_a_at) / RFU TNFAIP8L3 (11732012_x_at) / Fold change /veh TNFAIP8L3 (11732012_x_at) / RFU MBOAT4 (11741988_at) / Fold change /veh MBOAT4 (11741988_at) / RFU 11764193_at / Fold change /veh 11764193_at / RFU TMEM53 (11763286_at) / Fold change /veh TMEM53 (11763286_at) / RFU MAGEB2 (11727129_at) / Fold change /veh MAGEB2 (11727129_at) / RFU TMEM200A (11744735_a_at) / Fold change /veh TMEM200A (11744735_a_at) / RFU CCDC152 (11751479_a_at) / Fold change /veh CCDC152 (11751479_a_at) / RFU FAM211A (11726209_a_at) / Fold change /veh FAM211A (11726209_a_at) / RFU RGS16 (11746705_a_at) / Fold change /veh RGS16 (11746705_a_at) / RFU VCAN (11755009_s_at) / Fold change /veh VCAN (11755009_s_at) / RFU RHOB (11743442_s_at) / Fold change /veh RHOB (11743442_s_at) / RFU RGS16 (11720943_a_at) / Fold change /veh RGS16 (11720943_a_at) / RFU RGS16 (11720944_at) / Fold change /veh RGS16 (11720944_at) / RFU, VPS4B / Fold change vs veh, VPS4B / RFU, CREB1 / Fold change vs veh, CREB1 / RFU, DNAJC13 / Fold change vs veh, DNAJC13 / RFU, GNAQ / Fold change vs veh, GNAQ / RFU, CDK5R1 / Fold change vs veh, CDK5R1 / RFU, ZRANB3 / Fold change vs veh, ZRANB3 / RFU, CUL4A / Fold change vs veh, CUL4A / RFU, CCNY / Fold change vs veh, CCNY / RFU, UFL1 / Fold change vs veh, UFL1 / RFU, COG3 / Fold change vs veh, COG3 / RFU, DIAPH2 / Fold change vs veh, DIAPH2 / RFU, SKA2 / Fold change vs veh, SKA2 / RFU, AFF3 / Fold change vs veh, AFF3 / RFU, LMF1 / Fold change vs veh, LMF1 / RFU, IPO11 / Fold change vs veh, IPO11 / RFU, DFFB / Fold change vs veh, DFFB / RFU, FOXP1 / Fold change vs veh, FOXP1 / RFU, CARD8 / Fold change vs veh, CARD8 / RFU, STRN3 / Fold change vs veh, STRN3 / RFU, ADK / Fold change vs veh, ADK / RFU, RASSF2 / Fold change vs veh, RASSF2 / RFU, WIPF1 / Fold change vs veh, WIPF1 / RFU, LARP1B / Fold change vs veh, LARP1B / RFU, RASA1 / Fold change vs veh, RASA1 / RFU, RB1 / Fold change vs veh, RB1 / RFU, PPFIA1 / Fold change vs veh, PPFIA1 / RFU, MAT2A / Fold change vs veh, MAT2A / RFU, CCT5 / Fold change vs veh, CCT5 / RFU, WDR92 / Fold change vs veh, WDR92 / RFU, CUX1 / Fold change vs veh, CUX1 / RFU, TTC7A / Fold change vs veh, TTC7A / RFU, TMEM135 / Fold change vs veh, TMEM135 / RFU, DEPTOR / Fold change vs veh, DEPTOR / RFU, CPM / Fold change vs veh, CPM / RFU, DNAJB6 / Fold change vs veh, DNAJB6 / RFU, CACNA2D3 / Fold change vs veh, CACNA2D3 / RFU, DTX4 / Fold change vs veh, DTX4 / RFU, TFCP2 / Fold change vs veh, TFCP2 / RFU, GMCL1 /// GMCL1P1 / Fold change vs veh, GMCL1 /// GMCL1P1 / RFU, AEBP2 / Fold change vs veh, AEBP2 / RFU, SNHG1 /// SNORD22 /// SNORD25 /// SNORD26 /// SNORD27 /// SNORD28 /// SNORD29 /// SNORD31 / Fold change vs veh, SNHG1 /// SNORD22 /// SNORD25 /// SNORD26 /// SNORD27 /// SNORD28 /// SNORD29 /// SNORD31 / Fold change (Aza/veh), C12orf56 (ProbeSet 11735607_a_at) / Fold change (ACY-1035/veh), C12orf56 (ProbeSet 11735607_a_at) / Fold change (Aza/veh), FGFR1OP (ProbeSet 11751329_s_at) / Fold change (ACY-1035/veh), FGFR1OP (ProbeSet 11751329_s_at) / Fold change (Aza/veh), VPS36 (ProbeSet 11739960_a_at) / Fold change (ACY-1035/veh), VPS36 (ProbeSet 11739960_a_at) / RFU SYPL1 (11715823_x_at) / Fold change /veh SYPL1 (11715823_x_at) / RFU IGFBP7 (11715501_s_at) / Fold change /veh IGFBP7 (11715501_s_at) / RFU REEP3 (11722064_at) / Fold change /veh REEP3 (11722064_at) / RFU IGLL1 (11728026_x_at) / Fold change /veh IGLL1 (11728026_x_at): dose or concentration left out as unconfirmed
Settings: MV-4-11 cells, 48 hours

Nc1ncn([C@@H]2O[C@H](CO)[C@@H](O)[C@H]2O)c(=O)n1 [azacitidine]
RFU DUSP10 (11751237_a_at): 30.26 RFU
